Data reported in patent US20190255086A1, “Compositions and Methods for Treating an Infection” (CMPD Licensing, LLC, priority 2015, published 2019).

Experiments:
Bacteroides fragilis = experiment: Expected efficacy of anti-bacterial agents against various bacteria (Tables 5 and 6); conditions: Gram: anaer
Chlamydia pneumoniae = experiment: as above; conditions: Gram: n/a
Bartonella bacilliformis = experiment: as above; conditions: Gram: neg
Campylobacter jejuni = experiment: as above; conditions: Gram: neg
Citrobacter diversus = experiment: as above; conditions: Gram: neg
Citrobacter freundii = experiment: as above; conditions: Gram: neg
Enterobacter aerogenes = experiment: as above; conditions: Gram: neg
Escherichia coli = experiment: as above; conditions: Gram: neg
Francisella tularensis = conditions: expected efficacy; Francisella tularensis; Gram: neg
Haemophilus influenzae = experiment: Expected efficacy of anti-bacterial agents against various bacteria (Tables 5 and 6); conditions: Gram: neg
[1] = system: Haemophilus parainfluenzae; experiment: as above; conditions: Gram: neg
Klebsiella oxytoca = experiment: as above; conditions: Gram: neg
Klebsiella pneumoniae = experiment: as above; conditions: Gram: neg
Legionella pneumophila = conditions: expected efficacy; Legionella pneumophila; Gram: neg
Moraxella catarrhalis = experiment: Expected efficacy of anti-bacterial agents against various bacteria (Tables 5 and 6); conditions: Gram: neg
Morganella morganii = experiment: as above; conditions: Gram: neg
Neisseria gonorrhoeae = experiment: as above; conditions: Gram: neg
Neisseria meningitidis = experiment: as above; conditions: Gram: neg
Proteus mirabilis = experiment: as above; conditions: Gram: neg
Proteus vulgaris = experiment: as above; conditions: Gram: neg
Providencia rettgeri = experiment: as above; conditions: Gram: neg
Providencia stuartii = experiment: as above; conditions: Gram: neg
Pseudomonas aeruginosa = experiment: as above; conditions: Gram: neg
Pseudomonas fluorescens = experiment: as above; conditions: Gram: neg
Rickettsiae = conditions: expected efficacy; Rickettsiae; Gram: neg
Salmonella typhi = experiment: Expected efficacy of anti-bacterial agents against various bacteria (Tables 5 and 6); conditions: Gram: neg
Serratia marcescens = experiment: as above; conditions: Gram: neg
Shigella boydii = experiment: as above; conditions: Gram: neg
Shigella dysenteriae = experiment: as above; conditions: Gram: neg
Shigella flexneri = experiment: as above; conditions: Gram: neg
Shigella sonnei = experiment: as above; conditions: Gram: neg
Vibrio cholerae = experiment: as above; conditions: Gram: neg
Yersinia pestis = conditions: expected efficacy; Yersinia pestis; Gram: neg
Corynebacterium jeikeium = experiment: Expected efficacy of anti-bacterial agents against various bacteria (Tables 5 and 6); conditions: Gram: pos
Enterococcus faecium = experiment: as above; conditions: Gram: pos
[2] = system: Methicillin resistant staph aureus (MRSA); experiment: as above; conditions: Gram: pos
[3] = system: Staphylococcus epidermidis; experiment: as above; conditions: Gram: pos
Clostridium difficile = experiment: as above; conditions: Gram: anaer
Clostridium perfringens = conditions: expected efficacy; Clostridium perfringens; Gram: anaer
Chlamydia psittaci = conditions: expected efficacy; Chlamydia psittaci; Gram: n/a
Chlamydia trachomatis = experiment: Expected efficacy of anti-bacterial agents against various bacteria (Tables 5 and 6); conditions: Gram: n/a
Mycoplasma pneumoniae = experiment: as above; conditions: Gram: n/a
Acinetobacter baumannii = experiment: as above; conditions: Gram: neg
[4] = system: Acinetobacter calcoaceticus; experiment: as above; conditions: Gram: neg
Acinetobacter lwoffii = experiment: as above; conditions: Gram: neg
Bordetella pertussis = experiment: as above; conditions: Gram: neg
Brucella species = conditions: expected efficacy; Brucella species; Gram: neg
Enterobacter cloacae = experiment: Expected efficacy of anti-bacterial agents against various bacteria (Tables 5 and 6); conditions: Gram: neg
Enterobacter sakazakii = experiment: as above; conditions: Gram: neg
[5] = system: Klebsiella (Calymmatobacterium) granulomatis; experiment: as above; conditions: Gram: neg
Enterococcus faecalis = experiment: as above; conditions: Gram: pos
[6] = system: Staphylococcus aureus (MSSA); experiment: as above; conditions: Gram: pos
Streptococcus agalactiae = experiment: as above; conditions: Gram: pos
Streptococcus pneumoniae = experiment: as above; conditions: Gram: pos
Streptococcus pyogenes = experiment: as above; conditions: Gram: pos
Candida species = experiment: Expected efficacy of anti-fungal agents against various fungi (Table 4)

O=C(O)c1cn(C2CC2)c2cc(N3CCNCC3)c(F)cc2c1=O [Ciprofloxacin]
yes: Efficacy of various antibiotic agents (Chlamydia pneumoniae) | Efficacy of various antibiotic agents (Bartonella bacilliformis) | Efficacy of various antibiotic agents (Campylobacter jejuni) | Efficacy of various antibiotic agents (Citrobacter diversus) | Efficacy of various antibiotic agents (Citrobacter freundii) | Efficacy of various antibiotic agents (Enterobacter aerogenes) | Efficacy of various antibiotic agents (Escherichia coli) | Efficacy of various antibiotic agents (Francisella tularensis) | Efficacy of various antibiotic agents (Haemophilus influenzae) | Efficacy of various antibiotic agents [1] | Efficacy of various antibiotic agents (Klebsiella oxytoca) | Efficacy of various antibiotic agents (Klebsiella pneumoniae) | Efficacy of various antibiotic agents (Legionella pneumophila) | Efficacy of various antibiotic agents (Moraxella catarrhalis) | Efficacy of various antibiotic agents (Morganella morganii) | Efficacy of various antibiotic agents (Neisseria gonorrhoeae) | Efficacy of various antibiotic agents (Neisseria meningitidis) | Efficacy of various antibiotic agents (Proteus mirabilis) | Efficacy of various antibiotic agents (Proteus vulgaris) | Efficacy of various antibiotic agents (Providencia rettgeri) | Efficacy of various antibiotic agents (Providencia stuartii) | Efficacy of various antibiotic agents (Pseudomonas aeruginosa) | Efficacy of various antibiotic agents (Pseudomonas fluorescens) | Efficacy of various antibiotic agents (Rickettsiae) | Efficacy of various antibiotic agents (Salmonella typhi) | Efficacy of various antibiotic agents (Serratia marcescens) | Efficacy of various antibiotic agents (Shigella boydii) | Efficacy of various antibiotic agents (Shigella dysenteriae) | Efficacy of various antibiotic agents (Shigella flexneri) | Efficacy of various antibiotic agents (Shigella sonnei) | Efficacy of various antibiotic agents (Vibrio cholerae) | Efficacy of various antibiotic agents (Yersinia pestis) | Efficacy of various antibiotic agents [3]
no: Efficacy of various antibiotic agents (Bacteroides fragilis) | Efficacy of various antibiotic agents (Corynebacterium jeikeium) | Efficacy of various antibiotic agents (Enterococcus faecium) | Efficacy of various antibiotic agents [2]

CC[C@H]1OC(=O)[C@H](C)[C@@H](O[C@H]2C[C@@](C)(OC)[C@@H](O)[C@H](C)O2)[C@H](C)[C@@H](O[C@@H]2O[C@H](C)C[C@H](N(C)C)[C@H]2O)[C@](C)(O)C[C@@H](C)CN(C)[C@H](C)[C@@H](O)[C@]1(C)O [Azithromycin]
yes: Efficacy of various antibiotic agents (Chlamydia pneumoniae) | Efficacy of various antibiotic agents (Chlamydia psittaci) | Efficacy of various antibiotic agents (Chlamydia trachomatis) | Efficacy of various antibiotic agents (Mycoplasma pneumoniae) | Efficacy of various antibiotic agents (Bartonella bacilliformis) | Efficacy of various antibiotic agents (Bordetella pertussis) | Efficacy of various antibiotic agents (Campylobacter jejuni) | Efficacy of various antibiotic agents (Haemophilus influenzae) | Efficacy of various antibiotic agents (Legionella pneumophila) | Efficacy of various antibiotic agents (Moraxella catarrhalis) | Efficacy of various antibiotic agents (Neisseria meningitidis) | Efficacy of various antibiotic agents (Rickettsiae) | Efficacy of various antibiotic agents (Vibrio cholerae) | Efficacy of various antibiotic agents [6] | Efficacy of various antibiotic agents [3] | Efficacy of various antibiotic agents (Streptococcus agalactiae) | Efficacy of various antibiotic agents (Streptococcus pneumoniae) | Efficacy of various antibiotic agents (Streptococcus pyogenes)
no: Efficacy of various antibiotic agents (Bacteroides fragilis) | Efficacy of various antibiotic agents (Clostridium difficile) | Efficacy of various antibiotic agents (Clostridium perfringens) | Efficacy of various antibiotic agents (Acinetobacter baumannii) | Efficacy of various antibiotic agents [4] | Efficacy of various antibiotic agents (Acinetobacter lwoffii) | Efficacy of various antibiotic agents (Brucella species) | Efficacy of various antibiotic agents (Citrobacter diversus) | Efficacy of various antibiotic agents (Citrobacter freundii) | Efficacy of various antibiotic agents (Enterobacter aerogenes) | Efficacy of various antibiotic agents (Enterobacter cloacae) | Efficacy of various antibiotic agents (Enterobacter sakazakii) | Efficacy of various antibiotic agents (Escherichia coli) | Efficacy of various antibiotic agents (Francisella tularensis) | Efficacy of various antibiotic agents [5] | Efficacy of various antibiotic agents (Klebsiella oxytoca) | Efficacy of various antibiotic agents (Klebsiella pneumoniae) | Efficacy of various antibiotic agents (Morganella morganii) | Efficacy of various antibiotic agents (Proteus mirabilis) | Efficacy of various antibiotic agents (Proteus vulgaris) | Efficacy of various antibiotic agents (Providencia rettgeri) | Efficacy of various antibiotic agents (Providencia stuartii) | Efficacy of various antibiotic agents (Pseudomonas aeruginosa) | Efficacy of various antibiotic agents (Pseudomonas fluorescens) | Efficacy of various antibiotic agents (Serratia marcescens) | Efficacy of various antibiotic agents (Corynebacterium jeikeium) | Efficacy of various antibiotic agents (Enterococcus faecalis) | Efficacy of various antibiotic agents (Enterococcus faecium) | Efficacy of various antibiotic agents [2]

C[C@@H]1[C@H](O)[C@@H](C)/C=C/C=C/CC/C=C/C=C/C=C/C=C/C(O[C@H]2O[C@H](C)[C@@H](O)[C@H](N)[C@@H]2O)CC2O[C@](O)(CC(O)C(O)CCC(O)CC(O)CC(O)CC(=O)O[C@H]1C)CC(O)C2C(=O)O (stereo partly shown) [Nystatin]
yes: Efficacy of various antifungal agents (Candida species)
